Data set [1] is described as follows: Pharmacokinetic assay of compounds in mice. The format is in vivo, male ICR mice. The following applies: for Vd / AUC(0-t) / half-life / C0 / bioavailability / Cmax / Tmax: male, ICR, mouse, plasma; for Vd: read-out: Apparent volume of distribution Vd; for AUC(0-t): read-out: Area under the curve AUC0-last; for half-life: read-out: Half-life T1/2 (converted); for C0: read-out: Starting concentration C0; for bioavailability: PO 10 mg/kg vs IV 3 mg/kg, read-out: Bioavailability F %; for Cmax: read-out: Peak concentration Cmax; for Tmax: read-out: Time to peak Tmax. The text has this: Assay purpose: 7-9-week-old male ICR mice were used as test animals. LC/MS/MS method was used to determine the drug concentration of the compound in the plasma at different times after a single intravenous injection (IV) and oral administration (PO) of the compound, to study the pharmacokinetic behavior of the compounds of the present disclosure in mice, and to evaluate their pharmacokinetic characteristics.
Formulation of drug: The compounds were formulated as solutions in the respective solvents for administration in IV (intravenous injection) and PO (oral administration) groups. The dose of each compound was 3 mg/kg for IV and 10 mg/kg for PO, and the vehicle was 10% DMSO+10% solutol+80% (10% HP-β-CD).

Data set [2] relates to Ba/F3-FL-EGFR (del19-T790M-C797S) cells. As to the kind of experiment: In vivo efficacy, Ba/F3-FL-EGFR-Del19-T790M-C797S cell homograft tumor model. The following applies: for Relative tumor proliferation rate T/C / Tumor growth inhibition rate TGI: Day 10. More on the design: species or system mouse. How it is done:
Ba/F3-FL-EGFR (del19-T790M-C797S) cell line was cultured in RPMI1640 medium (Viva Cell)+10% fetal bovine serum (Viva Cell)+1% double-antibody (Penicillin Streptomycin solution, Gibco, USA) at 37° C., 5% CO2, and passaged 2-3 times a week. When the cell saturation was 80%-90%, cells were collected, counted and inoculated. When the cells in the logarithmic growth phase reached the required number for the assay, the cells were collected, and centrifuged at 1000 rpm for 5 min to remove the supernatant. The cells were resuspended with medium, and counted using a cell counter. According to the counting results, the original solution was diluted into a cell suspension with a concentration of 1*10^7 viable cells/mL, and the cell viability was 98.77%, P17 generation. The diluted cell suspension and matrix gel were diluted in a 1:1 ratio. After mixing well and placing on ice, the suspension was aspirated with a 1 mL sterile insulin syringe, and each mouse was subcutaneously inoculated with 0.2 mL of cell suspension in the right axilla. That is, each mouse was inoculated with 1*10^6 Ba/F3-FL-EGFR (del19-T790M-C797S) cells.
After the inoculation was completed, the tumor growth status was observed daily. When the average tumor volume reached approximately 100˜150 mm^3, the mice were randomly divided into groups according to tumor volume.
Dosage according to mouse body weight: 10 μL/g. If the body weight decreases by more than 20%, the dosing regimen was adjusted accordingly.
The formulation and any modifications of this assay protocol were evaluated and approved by the Laboratory Animal Welfare Ethics Committee of the testing institution. The health status and death of animals were checked every day. Routine inspections included tumor growth, activity, diet, body weight, eyes, hair and other abnormal behaviors of animals. Tumor volume and body weight were measured three times a week (Monday, Wednesday and Friday). The tumor volume was measured with a vernier caliper, and the formula was TV=0.5 a×b^2, where a is the long diameter of a tumor and b is the short diameter of a tumor.
Statistical analysis included the mean (Mean) and standard error (SEM) of tumor volume at each time point for each group. Statistical analysis was performed to evaluate differences between groups based on the data on the 10th day after administration. One way ANOVA post hoc test and Tamhane test were used to compare whether there was a significant difference in tumor volume between the treatment group and the control group. p<0.05 meaned a significant difference. Drug efficacy evaluation indicators included tumor volume and tumor weight to examine whether tumor growth was delayed, inhibited or cured. The anti-tumor efficacy of compounds was evaluated using the relative tumor proliferation rate T/C (%) or the tumor growth inhibition rate TGI (%). […] In principle, the evaluation criteria were: T/C (%) >40% or TGI (%) <40% represents ineffective; T/C (%)≤40% and p<0.05, or TGI (%)≥40% and p<0.05 represents effective.

Setting [3] is: 10 mg/kg/bid, day 0 after administration.
Where [4] appears, read: 10 mg/kg/bid, day 3 after administration.
The mark [5] stands for this setting: 10 mg/kg/bid, day 5 after administration.
The mark [6] stands for this setting: 10 mg/kg/bid, day 7 after administration.
[7] abbreviates: 10 mg/kg/bid, day 10 after administration.
[8] abbreviates: 25 mg/kg/bid, day 0 after administration.
[9] abbreviates: 25 mg/kg/bid, day 3 after administration.
[10] abbreviates: 25 mg/kg/bid, day 5 after administration.
The mark [11] stands for this setting: 25 mg/kg/bid, day 7 after administration.
Setting [12] is: 25 mg/kg/bid, day 10 after administration.

Read-outs that look alike come from different tables or passages of the source.

Turning to `Cc1cc2cc(n1)-c1cnn(C)c1OCCC[C@@H](C)CN1/C(=N/C2=O)Nc2ccc(N=S(C)(C)=O)cc21` [WX-006], in data set [1] (IV 3 mg/kg), the “Apparent clearance Cl” value came out at 14.6 mL/min/kg, the Vd was 1.9 L/kg, the AUC(0-t) was found to be 6.54 µM·h and the half-life is 3.6 h. For the same compound, in data set [1] (IV 3 mg/kg), the C0 was 8.14 µM. Moreover, the bioavailability in data set [1] was 83%. Further, in data set [1] (PO 10 mg/kg), the AUC(0-t) came to 18.1 µM·h, the Cmax is 3.59 µM and the Tmax was 1.5 h.
Regarding `Cc1cc2cc(n1)-c1cnn(C)c1OC[C@H]1CC[C@H](C1)CN1/C(=N/C2=O)Nc2ccc(N=S(C)(C)=O)cc21` (single isomer, unassigned) [WX-027A], in data set [1] (IV 3 mg/kg), the “Apparent clearance Cl” value is 14.2 mL/min/kg. Also, the Vd in data set [1] (IV 3 mg/kg) was found to be 1 L/kg. In addition, the values for the AUC(0-t) in data set [1] (IV 3 mg/kg) and in data set [1] (PO 10 mg/kg) were 7.7 µM·h and 15.7 µM·h, respectively. Further, the half-life in data set [1] (IV 3 mg/kg) was 1.1 h. Also, in data set [1] (IV 3 mg/kg), the C0 turned out to be 6.85 µM. The bioavailability in data set [1] was 64%. The Cmax in data set [1] (PO 10 mg/kg) was determined as 5.91 µM. Moreover, in data set [1] (PO 10 mg/kg), the Tmax stood at 0.8 h. Also, the “Relative tumor proliferation rate T/C” value in data set [2] (10 mg/kg/bid) turned out to be 14%; in data set [2] (25 mg/kg/bid), 7%. Besides, the “Tumor growth inhibition rate TGI” value is recorded as 94% in data set [2] (10 mg/kg/bid) and 102% in data set [2] (25 mg/kg/bid). The Average tumor volume in data set [2] (setting [3]) was found to be 113 mm^3; in data set [2] (setting [4]), 123 mm^3; in data set [2] (setting [5]), 111 mm^3; in data set [2] (setting [6]) it was 183 mm^3; in data set [2] (setting [7]), 179 mm^3; in data set [2] (setting [8]), 112 mm^3. The Average tumor volume in data set [2] (setting [9]) came to 105 mm^3; in data set [2] (setting [10]), 96 mm^3; in data set [2] (setting [11]), 108 mm^3; in data set [2] (setting [12]), 86 mm^3.
Regarding `Cc1cc2cc(n1)-c1cnn(C)c1OCCC[C@@H](C)CN1/C(=N/C2=O)Nc2ccc(N=S3(=O)CCCC3)cc21` [WX-010 (trifluoroacetate)], in data set [1] (IV 3 mg/kg), the “Apparent clearance Cl” value was determined as 5.7 mL/min/kg, the Vd was determined as 1 L/kg, the AUC(0-t) is 16.1 µM·h and the half-life was 2.8 h. The C0 in data set [1] (IV 3 mg/kg) is 8.14 µM. Further, the bioavailability in data set [1] was found to be 56%. In data set [1] (PO 10 mg/kg), the AUC(0-t) was 30.1 µM·h, the Cmax stood at 4.49 µM and the Tmax was 1 h.
Regarding `Cc1cc2cc(n1)-c1cnn(C)c1OCCC[C@@H](C)CN1/C(=N/C2=O)Nc2ccc(N=S(C)(C)=O)c(Cl)c21` [WX-019], in data set [1] (IV 3 mg/kg), the “Apparent clearance Cl” value was determined as 8.6 mL/min/kg. Also, the Vd in data set [1] (IV 3 mg/kg) was 1.6 L/kg. Further, the AUC(0-t) in data set [1] (IV 3 mg/kg) came to 10.6 µM·h; in data set [1] (PO 10 mg/kg) it was 23.2 µM·h. Besides, the half-life in data set [1] (IV 3 mg/kg) is 2.5 h. Also, the C0 in data set [1] (IV 3 mg/kg) stood at 5.73 µM. In addition, the bioavailability in data set [1] is 65%. Also, in data set [1] (PO 10 mg/kg), the Cmax was determined as 3.92 µM. For the same compound, in data set [1] (PO 10 mg/kg), the Tmax came out at 1 h. The “Relative tumor proliferation rate T/C” value in data set [2] (10 mg/kg/bid) is on record as 8%; in data set [2] (25 mg/kg/bid), 7%. Further, the “Tumor growth inhibition rate TGI” value in data set [2] (10 mg/kg/bid) was found to be 101%; in data set [2] (25 mg/kg/bid) it was 103%. For the same compound, the Average tumor volume is recorded as 113 mm^3 in data set [2] (setting [3]); 133 mm^3 in data set [2] (setting [4]); 140 mm^3 in data set [2] (setting [5]); 148 mm^3 in data set [2] (setting [6]); 106 mm^3 in data set [2] (setting [7]); 113 mm^3 in data set [2] (setting [8]). In addition, the Average tumor volume came out at 120 mm^3 in data set [2] (setting [9]), 94 mm^3 in data set [2] (setting [10]), 130 mm^3 in data set [2] (setting [11]) and 82 mm^3 in data set [2] (setting [12]).
For `Cc1cc2cc(n1)-c1cnn(C)c1OCCC[C@@H](C)CN1/C(=N/C2=O)Nc2ccc(N=S3(=O)CCOCC3)cc21` [WX-013], in data set [1] (IV 3 mg/kg), the “Apparent clearance Cl” value worked out at 4.7 mL/min/kg, the Vd worked out at 1 L/kg, the AUC(0-t) amounted to 18.9 µM·h and the half-life was 3.3 h. The C0 in data set [1] (IV 3 mg/kg) was 12.1 µM. Further, in data set [1], the bioavailability worked out at 34%. Besides, in data set [1] (PO 10 mg/kg), the AUC(0-t) stood at 21.5 µM·h, the Cmax amounted to 3.94 µM and the Tmax came out at 1 h.

Values taken from patent US20250084097A1, “MACROCYCLIC AMIDE COMPOUNDS AND APPLICATION THEREOF” (Medshine Discovery Inc., priority 2021, published 2025).
